Measured values: patent publication US10131652B2, “Pyrimidinyloxy benzene derivatives as herbicides” (E. I. DU PONT DE NEMOURS AND COMPANY, priority 2014, dated 2018)

Assays:
Assay type in all cases: in vivo
[1] = test system: small-flower umbrella sedge (Cyperus difformis); assay: Test C flooded paddy test plant response; conditions: Flood, 250 g ai/ha; scale of 0 to 100 where 0 is no effect and 100 is complete control; 13 to 15 days
Outline: (§1)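 Water-applied treatment: compounds go directly into floodwater standing 3 cm over the soil of pots holding 2-leaf-stage plants. Depth is kept constant; plants stay in a greenhouse 13 to 15 days before visual comparison with controls on a 0–100 scale.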

[2] = test system: ducksalad (Heteranthera limosa); assay: Test C flooded paddy test plant response; conditions: Flood, 250 g ai/ha; scale of 0 to 100 where 0 is no effect and 100 is complete control; 13 to 15 days
Outline: as §1

[3] = test system: barnyardgrass (Echinochloa crus-galli); assay: Test C flooded paddy test plant response; conditions: Flood, 250 g ai/ha; scale of 0 to 100 where 0 is no effect and 100 is complete control; 13 to 15 days
Outline: as §1

rice (Oryza sativa) = assay: Test C flooded paddy test plant response; conditions: Flood, 250 g ai/ha; scale of 0 to 100 where 0 is no effect and 100 is complete control; 13 to 15 days
Outline: as §1

kochia (Kochia scoparia) = assay: Test B pre-/postemergence plant response
Outline: (§2)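 Scoring used a 0–100 scale (100 = complete control) by visual comparison with untreated plants after approximately 10 days in the greenhouse. Compounds, in surfactant-containing non-phytotoxic solvent, were sprayed onto soil at planting or onto 2–10 cm seedlings.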

corn (Zea mays) = assay: Test B pre-/postemergence plant response
Outline: as §2

[4] = test system: Italian ryegrass (Lolium multiflorum); assay: Test B pre-/postemergence plant response
Outline: as §2

[5] = test system: barnyardgrass (Echinochloa crus-galli); assay: Test B pre-/postemergence plant response
Outline: as §2

[6] = test system: pigweed (Amaranthus retroflexus); assay: Test B pre-/postemergence plant response
Outline: as §2

[7] = test system: giant foxtail (Setaria faberii); assay: Test B pre-/postemergence plant response
Outline: as §2

[8] = test system: ragweed (common ragweed, Ambrosia elatior); assay: Test B pre-/postemergence plant response
Outline: as §2

[9] = test system: wheat (Triticum aestivum); assay: Test B pre-/postemergence plant response
Outline: as §2

[10] = test system: galium (catchweed bedstraw, Galium aparine); assay: Test B postemergence plant response
Outline: (§3)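 Pots, loam soil + sand; postemergence treatment at 1–2 leaf stage, 2–10 cm; greenhouse ~10 d; visual injury score 0 (none) to 100 (complete control) relative to untreated controls.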

[11] = test system: blackgrass (Alopecurus myosuroides); assay: Test B postemergence plant response
Outline: as §3

[12] = 125 g ai/ha, postemergence, 0 to 100 scale, 0 no effect, 100 complete control
[13] = Postemergence, 500 g ai/ha, 0 to 100 scale (0 no effect, 100 complete control)
[14] = Preemergence, 125 g ai/ha, 0 to 100 scale where 0 is no effect and 100 is complete control
[15] = Preemergence, 500 g ai/ha, 0 to 100 scale where 0 is no effect and 100 is complete control
[16] = Preemergence, 125 g ai/ha, 0 to 100 scale (0 no effect, 100 complete control)

Compound | Sedge, Umbrella plant response rating [1] | Ducksalad plant response rating [2] | Barnyardgrass plant response rating [3] | Rice plant response rating (rice (Oryza sativa)) | Plant response rating, Kochia (kochia (Kochia scoparia); [12]) | Plant response rating, Kochia (kochia (Kochia scoparia); [13]) | Plant response rating, Kochia (kochia (Kochia scoparia); [15]) | Plant response rating, Corn (corn (Zea mays); [12]) | Plant response rating, Corn (corn (Zea mays); [13]) | Plant response rating, Ryegrass, Italian [4, 12] | Plant response rating, Ryegrass, Italian [4, 13] | Plant response rating, Ryegrass, Italian [4, 15] | Plant response rating, Barnyardgrass [5, 12] | Plant response rating, Barnyardgrass [5, 13] | Plant response rating, Barnyardgrass [5, 15] | Plant response rating, Pigweed [6, 12] | Plant response rating, Pigweed [6, 13] | Plant response rating, Pigweed [6, 15] | Plant response rating, Foxtail, Giant [7, 12] | Plant response rating, Foxtail, Giant [7, 13] | also measured
Cn1nnc(-c2ccccc2Oc2ncc(Cl)cn2)n1 [Compound 48] | 0 | 0 | 0 | 0 | 50 | 100 | 80 | 0 | 10 | 0 | 0 | 50 | 0 | 0 | 40 | 70 | 100 | 100 | 0 | 40 | Plant response rating, Kochia (kochia (Kochia scoparia); [14]): 60; Plant response rating, Ryegrass, Italian [4, 14]: 40; Plant response rating, Barnyardgrass [5, 14]: 0; Plant response rating, Pigweed [6, 14]: 80; Plant response rating, Foxtail, Giant [7, 14]: 10; Plant response rating, Foxtail, Giant [7, 15]: 50; Plant response rating, Ragweed [8, 12]: 50; Plant response rating, Ragweed [8, 13]: 70; Plant response rating, Ragweed [8, 14]: 50; Plant response rating, Ragweed [8, 15]: 60; Plant response rating, Wheat [9, 12]: 0; Plant response rating, Wheat [9, 13]: 0; Plant response rating, Galium [10, 12]: 70; Plant response rating, Galium [10, 13]: 100; Plant response rating, Blackgrass [11, 12]: 40; Plant response rating, Blackgrass [11, 13]: 60
Clc1cnc(Oc2ccccc2-c2ccc(Br)s2)nc1 [Compound 181] | 0 | 0 | 0 | 0 | 30 | 50 | 0 | 10 | 10 | 0 | 0 | 0 | 10 | 20 | 10 | 50 | 90 | 80 | 0 | 20 | Kochia plant response rating (kochia (Kochia scoparia); [16]): 0; Ryegrass, Italian plant response rating [4, 16]: 0; Barnyardgrass plant response rating [5, 16]: 0; Pigweed plant response rating [6, 16]: 10; Foxtail, Giant plant response rating [7, 16]: 0; Plant response rating, Foxtail, Giant [7, 15]: 40; Plant response rating, Ragweed [8, 12]: 10; Plant response rating, Ragweed [8, 13]: 10; Ragweed plant response rating [8, 16]: 0; Plant response rating, Ragweed [8, 15]: 0; Plant response rating, Wheat [9, 12]: 0; Plant response rating, Wheat [9, 13]: 0; Plant response rating, Galium [10, 12]: 10; Plant response rating, Galium [10, 13]: 50; Plant response rating, Blackgrass [11, 12]: 0; Plant response rating, Blackgrass [11, 13]: 10
